Test results as given in patent US7148028B2, “Methods and means relating to atherosclerosis” (priority 2001, dated 2006).
Values joined by “and” are separate entries in the source; they are usually repeats but may differ in a detail not shown here. Equal entries are not always repeated. “Also recorded” adds a separate entry of the source. Structures can show the parent of a compound that is named as a salt. Where two headings read alike, the source gives them in different places.

How the values were obtained:
anti-Chlamydia abzymes [1] = assay type: in vivo, human; settings: for abzyme activity of individuals, + aspirin: self-reported aspirin takers, one value per individual
anti-Chlamydia abzymes [2] = assay type: biochemical, human; parameters: key to In-vitro Inhibition: + = inhibition; − = no inhibition
[3] = Clinical condition, modified Rose-Blackburn Questionnaire; assay type: in vivo, human
Source text: The progression of the clinical condition of the patients was monitored by the use of the modified Bruce Protocol for treadmill exercise/stress ECG testing and on the Rose-Blackburn Questionnaire (Cardiovascular Survey Methods. WHO, Geneva, 1968)

[4] = system: Chlamydia pneumoniae or Chlamydia Psittaci; assay type: biochemical
lesion IgG = test: LDL peroxidation by lesion IgG (MDA); assay type: biochemical, human
[5] = 10 μM of each agent, control 24.3

Compound: CC(=O)Oc1ccccc1C(=O)O [Aspirin, acetylsalicylic acid]
- abzyme activity after a week (anti-Chlamydia abzymes [1]; 250 mg aspirin daily, the other two CHD patients): undetectably low level
- abzyme activity, aspirin alone (anti-Chlamydia abzymes [1]; Therapy Group D, 250 mg daily): reduction in the abzyme activity but to a lesser degree than observed with the combination
- individuals positive for abzymes / individuals, + aspirin (anti-Chlamydia abzymes [1]; stable angina class I): 1/6
- percentage positive for abzymes, + aspirin (anti-Chlamydia abzymes [1]; stable angina class I): 17%
- abzyme activity, group mean, + aspirin (anti-Chlamydia abzymes [1]; stable angina class I, n = 6, without aspirin 30.0): 10.0
- abzyme activity of individuals, + aspirin (anti-Chlamydia abzymes [1]; stable angina class I): 5 and 45 and 0 (3×) and 10
- individuals positive for abzymes / individuals, + aspirin (anti-Chlamydia abzymes [1]; stable angina class II): 4/15
- percentage positive for abzymes, + aspirin (anti-Chlamydia abzymes [1]; stable angina class II): 27%
- abzyme activity, group mean, + aspirin (anti-Chlamydia abzymes [1]; stable angina class II, n = 15, without aspirin 32.2): 9.2
- abzyme activity of individuals, + aspirin (anti-Chlamydia abzymes [1]; stable angina class II): 5 (4×) and 10 (2×) and 0 (4×) and 25 and 3.3 and 30
- individuals positive for abzymes / individuals, + aspirin (anti-Chlamydia abzymes [1]; stable angina class III): 6/10
- percentage positive for abzymes, + aspirin (anti-Chlamydia abzymes [1]; stable angina class III): 60%
- abzyme activity of individuals, + aspirin (anti-Chlamydia abzymes [1]; stable angina class III): 0 (3×) and 45 and 5 and 35 and 15 and 30 and 20
- individuals positive for abzymes / individuals, + aspirin (anti-Chlamydia abzymes [1]; unstable angina IV): 6/7
- percentage positive for abzymes, + aspirin (anti-Chlamydia abzymes [1]; unstable angina IV): 86%
- abzyme activity of individuals, + aspirin (anti-Chlamydia abzymes [1]; unstable angina IV): 130 and 70 and 0 and 37 and 90 and 100 and 180
- Result (inhibition of anti-Chlamydia abzymes) (anti-Chlamydia abzymes [2]; 10 μM of each agent): Positive
- Lipid oxidising activity of anti-Chlamydia abzymes (anti-Chlamydia abzymes [2]; [5]): 6.2 μM MDA/ml

Compound: CC[C@H]1OC(=O)[C@H](C)[C@@H](O[C@H]2C[C@@](C)(OC)[C@@H](O)[C@H](C)O2)[C@H](C)[C@@H](O[C@@H]2O[C@H](C)C[C@H](N(C)C)[C@H]2O)[C@](C)(O)C[C@@H](C)CN(C)[C@H](C)[C@@H](O)[C@]1(C)O [Azithromycin]
- Abzyme activity after 15 days / two weeks (anti-Chlamydia abzymes [1]; Example 8, stable angina patients): reduced abzyme activity
- Anti-Chlamydia abzyme activity, 45 days, group mean (anti-Chlamydia abzymes [1]; Therapy Group A, before 47.5): 7.4 μM MDA/ml
- Anti-Chlamydia abzyme activity, 60 days, group mean (anti-Chlamydia abzymes [1]; Therapy Group A, before 47.5): 1.6 μM MDA/ml
- in vitro inhibition of abzyme activity (anti-Chlamydia abzymes [2]): strong in vitro inhibitor of abzyme activity
- Lipid oxidising activity of anti-Chlamydia abzymes (anti-Chlamydia abzymes [2]; in DMSO, 5 μM, control 61, DMSO effect deducted): 0 μM MDA/ml
- Clinical condition After 15 days of treatment ([3]; Table 17, anti-microbial agent only, single patients): angina class II;; also recorded: Stable condition;
- Score by modified Rose-Blackburn Questionnaire, 60 days after start of the treatment, group mean ([3]; before: A 19.4 ± 1.79, B 20.4 ± 1.24, C 18.6 ± 0.81): 14.4 ± 1.14

Compound: CCN(CC)C(=S)S [DDC]
- In-vitro Inhibition (anti-Chlamydia abzymes [2]): +
- Result (inhibition of anti-Chlamydia abzymes) (anti-Chlamydia abzymes [2]; 10 μM of each agent): Positive
- Lipid oxidising activity of anti-Chlamydia abzymes (anti-Chlamydia abzymes [2]; [5]): 0 μM MDA/ml

Compound: C[S+](C)[O-] [DMSO]
- development of lipid oxidation reaction after treatment of Chlamydia with chaotropic agents [4]: completely abrogated
- Level of MDA production by 0.82 μg of lesion IgG (lesion IgG; +1% antioxidant, LDL 480 μg of protein, control 0.49 ± 0.023): 0 µM

Compound: O=C(O)CN(CCN(CC(=O)O)CC(=O)O)CCN(CC(=O)O)CC(=O)O [DTPA]
- Result (inhibition of anti-Chlamydia abzymes) (anti-Chlamydia abzymes [2]; 10 μM of each agent): Negative

Compound: O=[N+]([O-])OCC(CO[N+](=O)[O-])O[N+](=O)[O-] [Glyceryl Trinitrate]
- Anti-Abzyme accivity (anti-Chlamydia abzymes [2]; 4.4 μM, control 21.7): 0 μM MDA/ml
- Anti-Abzyme accivity (anti-Chlamydia abzymes [2]; 22 μM, control 21.7): 0 μM MDA/ml
- Anti-Abzyme accivity (anti-Chlamydia abzymes [2]; 44 μM, control 21.7): 0 μM MDA/ml
- Anti-Abzyme accivity (anti-Chlamydia abzymes [2]; 220 μM, control 21.7): 0 μM MDA/ml

Compound: O=[N+]([O-])O[C@H]1CO[C@H]2[C@@H]1OC[C@H]2O[N+](=O)[O-] [Isosorbide Dinitrate]
- Anti-Abzyme accivity (anti-Chlamydia abzymes [2]; 42 μM, control 21.7): 0 μM MDA/ml
- Anti-Abzyme accivity (anti-Chlamydia abzymes [2]; 211 μM, control 21.7): 0 μM MDA/ml

Compound: CCC[C@@H]1C[C@@H](C(=O)N[C@@H]([C@H]2O[C@H](SC)[C@H](O)[C@@H](O)[C@H]2O)[C@@H](C)O)N(C)C1 [Lincomycin Hydrochloride]
- Anti-Abzyme accivity (anti-Chlamydia abzymes [2]; 6.5 μM, control 21.7): 28.5 μM MDA/ml
- Anti-Abzyme accivity (anti-Chlamydia abzymes [2]; 13 μM, control 21.7): 30.3 μM MDA/ml

Compound: [N-]=[N+]=[N-].[Na+] [NaN1]
- Result (inhibition of anti-Chlamydia abzymes) (anti-Chlamydia abzymes [2]; 10 μM of each agent): Positive
- Lipid oxidising activity of anti-Chlamydia abzymes (anti-Chlamydia abzymes [2]; [5]): 0 μM MDA/ml

Compound: CC(C)(S)[C@@H](N)C(=O)O [Penicillamine]
- Result (inhibition of anti-Chlamydia abzymes) (anti-Chlamydia abzymes [2]; 10 μM of each agent): Positive
- Lipid oxidising activity of anti-Chlamydia abzymes (anti-Chlamydia abzymes [2]; [5]): 0 μM MDA/ml

Compound: O=C(O)c1ccccn1 [Picolinic acid]
- Result (inhibition of anti-Chlamydia abzymes) (anti-Chlamydia abzymes [2]; 10 μM of each agent): Positive
- Lipid oxidising activity of anti-Chlamydia abzymes (anti-Chlamydia abzymes [2]; [5]): 0 μM MDA/ml

Compound: CC(C)NCC(O)COc1cccc2ccccc12 (stereo not shown) [Propranolol Hydrochloride]
- Anti-Abzyme accivity (anti-Chlamydia abzymes [2]; Hydrochloride): 21.3 μM MDA/ml and 18.3 μM MDA/ml

Compound: CCCCCCCCCCCCOS(=O)(=O)[O-].[Na+] [SDS]
- lipid oxidising reaction with treated Chlamydia samples [4]: no lipid oxidising reaction

Compound: N.N.O=S(=O)(O)O [ammonium sulphate]
- lipid oxidising reaction with treated Chlamydia samples [4]: no lipid oxidising reaction

Compound: O=C(O)c1ccccc1 [benzoic acid]
- Level of MDA production by 0.82 μg of lesion IgG (lesion IgG; pH 5.6): 0 µM

Compound: C=O [formalin]
- lipid oxidising reaction with treated Chlamydia samples [4]: no lipid oxidising reaction

Compound: O=C[O-].[Na+] [sodium formate]
- Level of MDA production by 0.82 μg of lesion IgG (lesion IgG; +0.1 M antioxidant, LDL 480 μg of protein, 16 h 37° C. pH 5.6, control 0.49 ± 0.023): 0 µM

Compound: Heparin
- Anti-Abzyme accivity (anti-Chlamydia abzymes [2]; 0.1 mg/ml, control 21.7): 19.7 μM MDA/ml

Compound: Igepal CA-630
- development of lipid oxidation reaction after treatment of Chlamydia with chaotropic agents [4]: completely abrogated
- oxidation of the lipids in the bacteria by the extracted abzymes after detergent treatment [4]: abolished

Compound: Nadroparin Calcium
- Anti-Abzyme accivity (anti-Chlamydia abzymes [2]; 5 UI, control 21.7): 20.5 μM MDA/ml
- Anti-Abzyme accivity (anti-Chlamydia abzymes [2]; 65 UI, control 21.7): 12.8 μM MDA/ml

Compound: Triton X-100
- development of lipid oxidation reaction after treatment of Chlamydia with chaotropic agents [4]: completely abrogated
- oxidation of the lipids in the bacteria by the extracted abzymes after detergent treatment [4]: abolished
